Measurements from ChEMBL document CHEMBL5241112, “Insights into the recent progress in the medicinal chemistry of pyranopyrimidine analogs” (RSC Med Chem, 2022).
≈ marks a conversion by molar mass, not a printed value. Each block holds one molecule with its values, some of them ahead of it.

Assays:
[1] = system: Candida albicans; test: Antifungal activity against Candida albicans assessed as inhibition of fungal growth; type: functional
[2] = system: Aspergillus flavus; test: Antifungal activity against Aspergillus flavus assessed as inhibition of fungal growth; type: functional
[3] = system: Escherichia coli; test: Antimicrobial activity against Escherichia coli ATCC 25922 assessed as diameter of inhibition zone at 20 mg/ml incubated for 24 hrs by disk diffusion method; type: functional; conditions: read-out: DIZ
[4] = system: HCT-116; test: Anticancer activity against human HCT-116 cells assessed as reduction in cell viability incubated for 96 hrs by MTT assay; type: functional, cell-based; conditions: HCT-116, 96 h
[5] = system: Aspergillus niger; test: Antifungal activity against Aspergillus niger assessed as inhibition of fungal growth; type: functional
[6] = system: Salmonella typhimurium; test: Antimicrobial activity against Salmonella typhimurium ATCC 19430 assessed as diameter of inhibition zone at 20 mg/ml incubated for 24 hrs by disk diffusion method; type: functional, Salmonella enterica subsp. enterica serovar Typhimurium; conditions: Salmonella enterica, read-out: DIZ
[7] = system: Klebsiella pneumoniae; test: Antimicrobial activity against Klebsiella pneumoniae ATCC 15380 assessed as diameter of inhibition zone at 20 mg/ml incubated for 24 hrs by disk diffusion method; type: functional; conditions: read-out: DIZ
[8] = system: Klebsiella pneumoniae; test: Antibacterial activity against Klebsiella pneumoniae assessed as diameter of inhibition zone at 100 ug/ml by disc diffusion method; type: functional; conditions: read-out: DIZ
[9] = system: Bacillus subtilis; test: Antibacterial activity against Bacillus subtilis assessed as diameter of inhibition zone at 100 ug/ml by disc diffusion method; type: functional; conditions: read-out: DIZ
[10] = system: Aspergillus flavus; test: Antifungal activity against Aspergillus flavus assessed as diameter of inhibition zone at 100 ug/ml by agar disc diffusion method; type: functional; conditions: read-out: DIZ
[11] = system: Staphylococcus aureus; test: Antibacterial activity against Staphylococcus aureus assessed as diameter of inhibition zone at 100 ug/ml by disc diffusion method; type: functional; conditions: read-out: DIZ
[12] = system: Candida albicans; test: Antifungal activity against Candida albicans assessed as diameter of inhibition zone at 100 ug/ml by agar disc diffusion method; type: functional; conditions: read-out: DIZ
[13] = system: Escherichia coli; test: Antibacterial activity against Escherichia coli assessed as diameter of inhibition zone at 100 ug/ml by disc diffusion method; type: functional; conditions: read-out: DIZ
[14] = system: Candida albicans; test: Antifungal activity against Candida albicans assessed as diameter of inhibition zone incubated for 48 hrs by agar well diffusion method; type: functional
[15] = system: Escherichia coli; test: Antibacterial activity against Escherichia coli NCIM 2066 assessed as diameter of inhibition zone incubated for 24 hrs by agar well diffusion method; type: functional
[16] = system: Staphylococcus aureus; test: Antibacterial activity against Staphylococcus aureus NCIM 2654 assessed as diameter of inhibition zone incubated for 24 hrs by agar well diffusion method; type: functional
[17] = system: HepG2; test: Antiproliferative activity against human HepG2 cells assessed as reduction in cell proliferation; type: functional, cell-based
[18] = system: MCF7; test: Antiproliferative activity against human MCF7 cells assessed as reduction in cell proliferation; type: functional, cell-based
[19] = Antiproliferative activity against human […] cells assessed as reduction in cell proliferation; type: functional, cell-based
[20] = system: Staphylococcus aureus; test: Antibacterial activity against Staphylococcus aureus assessed as inhibition of bacterial growth; type: functional
[21] = system: Escherichia coli; test: Antibacterial activity against Escherichia coli assessed as inhibition of bacterial growth; type: functional
[22] = system: Pseudomonas aeruginosa; test: Antibacterial activity against Pseudomonas aeruginosa assessed as inhibition of bacterial growth; type: functional
[23] = system: Staphylococcus aureus; test: Antimicrobial activity against Staphylococcus aureus assessed as diameter of inhibition zone at 1.2 mg/ml incubated for 12 hrs by agar disk diffusion method; type: functional; conditions: read-out: DIZ
[24] = system: Escherichia coli; test: Antimicrobial activity against Escherichia coli assessed as diameter of inhibition zone at 2.5 mg/ml incubated for 12 hrs by agar disk diffusion method; type: functional; conditions: read-out: DIZ
[25] = system: Bacillus cereus; test: Antimicrobial activity against Bacillus cereus assessed as diameter of inhibition zone at 5.0 mg/ml incubated for 12 hrs by agar disk diffusion method; type: functional; conditions: read-out: DIZ
[26] = system: Bacillus cereus; test: Antimicrobial activity against Bacillus cereus assessed as diameter of inhibition zone at 2.5 mg/ml incubated for 12 hrs by agar disk diffusion method; type: functional; conditions: read-out: DIZ
[27] = system: Escherichia coli; test: Antimicrobial activity against Escherichia coli assessed as diameter of inhibition zone at 5.0 mg/ml incubated for 12 hrs by agar disk diffusion method; type: functional; conditions: read-out: DIZ
[28] = system: Staphylococcus aureus; test: Antimicrobial activity against Staphylococcus aureus assessed as diameter of inhibition zone at 5.0 mg/ml incubated for 12 hrs by agar disk diffusion method; type: functional; conditions: read-out: DIZ
[29] = system: Pseudomonas aeruginosa; test: Antimicrobial activity against Pseudomonas aeruginosa assessed as diameter of inhibition zone at 2.5 mg/ml incubated for 12 hrs by agar disk diffusion method; type: functional; conditions: read-out: DIZ
[30] = system: Pseudomonas aeruginosa; test: Antimicrobial activity against Pseudomonas aeruginosa assessed as diameter of inhibition zone at 1.2 mg/ml incubated for 12 hrs by agar disk diffusion method; type: functional; conditions: read-out: DIZ
[31] = system: Pseudomonas aeruginosa; test: Antimicrobial activity against Pseudomonas aeruginosa assessed as diameter of inhibition zone at 5.0 mg/ml incubated for 12 hrs by agar disk diffusion method; type: functional; conditions: read-out: DIZ
[32] = system: Staphylococcus aureus; test: Antimicrobial activity against Staphylococcus aureus assessed as diameter of inhibition zone at 2.5 mg/ml incubated for 12 hrs by agar disk diffusion method; type: functional; conditions: read-out: DIZ
[33] = system: Bacillus cereus; test: Antimicrobial activity against Bacillus cereus assessed as diameter of inhibition zone at 1.2 mg/ml incubated for 12 hrs by agar disk diffusion method; type: functional; conditions: read-out: DIZ
[34] = Inhibition of porcine pancreatic alpha-amylase preincubated for 10 mins followed by substrate starch addition and measured after 10 mins by colorimetric analysis; design: species or system Sus scrofa
[35] = biological target: Alpha-glucosidase (Saccharomyces cerevisiae S288c, UniProt P53341+P38158+P07265); test: Inhibition of Saccharomyces cerevisiae alpha-glucosidase preincubated for 5 mins followed by PNP-GLUC substrate addition and measured after 20 mins by spectroscopic analysis; type: protein assay
[36] = system: Staphylococcus aureus; test: Antibacterial activity against Staphylococcus aureus MTCC 87 assessed as diameter of inhibition zone at 0.1 mg/ml incubated for 24 hrs by agar well diffusion method; type: functional; conditions: read-out: DIZ
[37] = biological target: Albumin (Bos taurus, UniProt P02769); test: […] bovine serum albumin denaturation incubated for 23 mins by UV-Visible spectrophotometry
Chain of Albumin (P02769 whole entry): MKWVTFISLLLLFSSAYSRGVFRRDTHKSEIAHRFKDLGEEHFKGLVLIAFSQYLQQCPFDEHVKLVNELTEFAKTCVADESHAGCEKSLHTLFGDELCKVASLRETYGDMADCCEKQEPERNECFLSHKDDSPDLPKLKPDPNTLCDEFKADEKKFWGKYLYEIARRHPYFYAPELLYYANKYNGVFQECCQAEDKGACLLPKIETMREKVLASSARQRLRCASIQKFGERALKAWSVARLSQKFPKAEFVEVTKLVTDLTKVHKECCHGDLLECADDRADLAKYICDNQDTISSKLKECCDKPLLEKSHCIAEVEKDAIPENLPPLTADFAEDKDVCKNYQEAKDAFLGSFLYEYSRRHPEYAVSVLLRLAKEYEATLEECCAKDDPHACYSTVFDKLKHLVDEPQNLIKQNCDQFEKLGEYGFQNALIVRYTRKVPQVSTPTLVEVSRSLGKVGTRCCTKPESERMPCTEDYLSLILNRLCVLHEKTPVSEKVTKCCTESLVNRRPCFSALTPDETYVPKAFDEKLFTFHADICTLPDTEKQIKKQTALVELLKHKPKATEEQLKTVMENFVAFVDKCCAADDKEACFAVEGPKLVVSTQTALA

[38] = Antioxidant activity assessed as DPPH radical scavenging activity at 12 ug incubated for 30 mins by spectrophotometric analysis; type: functional; conditions: dose 12.0 µg
[39] = system: Klebsiella pneumoniae; test: Antibacterial activity against Klebsiella pneumoniae MTCC 109 assessed as diameter of inhibition zone at 0.1 mg/ml incubated for 24 hrs by agar well diffusion method; type: functional; conditions: read-out: DIZ
[40] = Antioxidant activity assessed as DPPH radical scavenging activity at 100 ug/ml incubated for 30 mins by spectrophotometric analysis; type: functional; conditions: dose 100.0 µg/ml

MIC [1]: 125 µg/mL (≈ 434 µM) | MIC [2]: 150 µg/mL (≈ 520 µM) | IC50 [4]: 2.76 µM | MIC [5]: 162 µg/mL (≈ 564 µM)
Structure (SMILES): N#CC1=C(N)Oc2[nH]c(=O)[nH]c(=O)c2C1c1cccs1 (stereo not drawn)
zone of inhibition at 20000 µg/mL [3]: 14 mm | zone of inhibition at 20000 µg/mL [6]: 20 mm | zone of inhibition at 20000 µg/mL [7]: 16 mm

Structure (SMILES): CCOC(=O)C1=C(C)Oc2nc(C)n(Cc3cn(-c4ccc(Cl)cc4)nn3)c(=O)c2C1c1ccc([N+](=O)[O-])cc1 (stereo not drawn)
zone of inhibition at 100 µg/mL [8]: 16.5 mm | zone of inhibition at 100 µg/mL [9]: 13 mm | zone of inhibition at 100 µg/mL [10]: 17.5 mm | zone of inhibition at 100 µg/mL [11]: 15 mm | zone of inhibition at 100 µg/mL [12]: 17.5 mm | zone of inhibition at 100 µg/mL [13]: 17 mm

Structure (SMILES): CC(=O)N1CCN(c2ccc(OCC3COC(Cn4ccnc4)(c4ccc(Cl)cc4Cl)O3)cc2)CC1 (stereo not drawn) [KETOCONAZOLE]
zone of inhibition at 100 µg/mL [10]: 18.5 mm | zone of inhibition at 100 µg/mL [12]: 20.5 mm

Structure (SMILES): COc1ccc(C2c3c(C)n[nH]c3Oc3[nH]c(=O)[nH]c(=O)c32)cc1 (stereo not drawn)
diameter of the inhibition zone (DIZ) [14]: 27 mm | diameter of the inhibition zone (DIZ) [15]: 19 mm | diameter of the inhibition zone (DIZ) [16]: 27 mm

IC50 [17]: 9.26 µM | IC50 [18]: 9.89 µM
Structure (SMILES): NNc1ncnc2c1C(c1cn(-c3ccccc3)nc1-c1ccccc1)c1c(ccc3ccccc13)O2 (stereo not drawn)
IC50 [19]: 4.9 µM

MIC [1]: 125 µg/mL (≈ 419 µM) | MIC [20]: 25 µg/mL (≈ 83.8 µM) | MIC [2]: 150 µg/mL (≈ 503 µM) | MIC [21]: 75 µg/mL (≈ 251 µM) | MIC [5]: 162 µg/mL (≈ 545 µM) | MIC [22]: 25 µg/mL (≈ 83.8 µM)
Structure (SMILES): N#CC1=C(N)Oc2[nH]c(=O)[nH]c(=O)c2C1c1ccccc1O (stereo not drawn)

Structure (SMILES): N#CC1=C(N)Oc2[nH]c(=O)[nH]c(=O)c2C1c1ccncc1 (stereo not drawn)
zone of inhibition at 1200 µg/mL [23]: 8 mm | zone of inhibition at 2500 µg/mL [24]: 13 mm | zone of inhibition at 5000 µg/mL [25]: 19 mm | zone of inhibition at 2500 µg/mL [26]: 15 mm | zone of inhibition at 5000 µg/mL [27]: 17 mm | zone of inhibition at 5000 µg/mL [28]: 14 mm | zone of inhibition at 2500 µg/mL [29]: 16 mm | zone of inhibition at 1200 µg/mL [30]: 12 mm | zone of inhibition at 5000 µg/mL [31]: 19 mm | zone of inhibition at 2500 µg/mL [32]: 10 mm | zone of inhibition at 1200 µg/mL [33]: 10 mm

IC50 [34]: 24.7 µM | IC50 [35]: 6855 µM | IC50 [37]: 23.1 µM
Structure (SMILES): O=C(C1=C(c2ccccc2O)Oc2[nH]c(=S)[nH]c(=O)c2C1c1ccc(Br)cc1)N1CCCCC1 (stereo not drawn)
zone of inhibition at 100 µg/mL [36]: 9.1 mm

Structure (SMILES): Cc1n[nH]c2c1C(c1ccccc1)c1c([nH]c(=O)[nH]c1=O)O2 (stereo not drawn)
diameter of the inhibition zone (DIZ) [14]: 23 mm | diameter of the inhibition zone (DIZ) [15]: 14 mm | Activity [38]: 65.8% | diameter of the inhibition zone (DIZ) [16]: 18 mm

MIC [1]: 125 µg/mL (≈ 422 µM) | MIC [20]: 25 µg/mL (≈ 84.4 µM) | MIC [2]: 150 µg/mL (≈ 506 µM) | MIC [21]: 25 µg/mL (≈ 84.4 µM) | MIC [5]: 162 µg/mL (≈ 548 µM) | MIC [22]: 87.5 µg/mL (≈ 295 µM)
Structure (SMILES): N#CC1=C(N)Oc2[nH]c(=O)[nH]c(=O)c2C1Cc1ccccc1 (stereo not drawn)

IC50 [34]: 42.8 µM | IC50 [35]: 4101 µM | IC50 [37]: 12.3 µM
Structure (SMILES): O=C(C1=C(c2ccccc2O)Oc2[nH]c(=S)[nH]c(=O)c2C1c1ccc(F)cc1)N1CCCCC1 (stereo not drawn)
zone of inhibition at 100 µg/mL [39]: 9.2 mm | zone of inhibition at 100 µg/mL [36]: 10.5 mm

Structure (SMILES): O=c1c(C2c3c(O)ncnc3Oc3[nH]nc(-c4ccccc4)c32)coc2ccccc12 (stereo not drawn)
Activity [40]: 87.5%
